Experimental data published in PubChem BioAssay (NCI).
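48-hour exposure; five concentrations; linearly interpolated endpoints. The concentration for 50% growth inhibition is given as GI50. TGI denotes the concentration required for complete inhibition of growth.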

Tests used:
Assay in all cases: growth of human tumour cells (NCI), 48 h
A549 NSCLC = tested on: A549 NSCLC
CAKI-1 renal = tested on: CAKI-1 renal
EKVX NSCLC = tested on: EKVX NSCLC
HCT-15 colon = tested on: HCT-15 colon
HOP-62 NSCLC = tested on: HOP-62 NSCLC
M14 melanoma = tested on: M14 melanoma
MDA-MB-231 breast = tested on: MDA-MB-231 breast
NCI-H226 lung = tested on: NCI-H226 lung
OVCAR-8 ovarian = tested on: OVCAR-8 ovarian
PC-3 prostate = tested on: PC-3 prostate
SK-OV-3 ovarian = tested on: SK-OV-3 ovarian

| SMILES | TGI (A549 NSCLC) [µM] | TGI (CAKI-1 renal) [µM] | TGI (EKVX NSCLC) [µM] | TGI (HCT-15 colon) [µM] | TGI (HOP-62 NSCLC) [µM] | TGI (M14 melanoma) [µM] | TGI (MDA-MB-231 breast) [µM] | TGI (NCI-H226 lung) [µM] | TGI (OVCAR-8 ovarian) [µM] | TGI (PC-3 prostate) [µM] | TGI (SK-OV-3 ovarian) [µM] | GI50 (CAKI-1 renal) [µM] | GI50 (HCT-15 colon) [µM] | GI50 (MDA-MB-231 breast) [µM] | GI50 (PC-3 prostate) [µM] |
| --- | --- | --- | --- | --- | --- | --- | --- | --- | --- | --- | --- | --- | --- | --- | --- |
| CC[C@@]1(O)C(=O)OCc2c1cc1n(c2=O)Cc2c-1nc1ccc(O)cc1c2[Si](C)(C)C(C)(C)C | 1.19 | < 0.0137 | 15.8 | 8.81 | 1.49 | < 0.0114 | 20.6 | 0.015 | > 42.3 | 2.9 | > 53 | – | – | – | – |
| CCCC[C@@H](C)/C=C1\CN2CCC[C@H]2[C@@](C)(OCc2ccccc2)[C@@H]1O | > 50 | > 50 | > 50 | > 50 | 18.4 | > 50 | > 50 | > 50 | > 50 | > 50 | > 50 | – | – | – | – |
| COC(C/C(=C/CO[Si](C(C)C)(C(C)C)C(C)C)C(=O)N(COCC[Si](C)(C)C)c1ccccc1I)OC | > 100 | > 100 | – | > 100 | > 100 | > 100 | > 100 | > 100 | > 100 | 83.6 | > 100 | – | – | – | – |
| O[C@@H]1C=C[C@]23CCN(Cc4cc5c(cc42)OCO5)[C@@H]3C1 | > 100 | > 100 | > 100 | > 100 | > 100 | > 100 | > 100 | > 100 | > 100 | > 100 | > 100 | – | – | – | – |
| COC(=O)[C@@H]1CS(=O)(=O)C(C(C)C)N1C(C)=O (some centres undefined) | > 100 | > 100 | > 100 | > 100 | > 100 | > 100 | > 100 | > 100 | > 100 | > 100 | > 100 | – | – | – | – |
| Cc1cn(C2CCC(CO)(CF)O2)c(=O)[nH]c1=O (centres undefined) | > 100 | > 100 | > 100 | > 100 | > 100 | > 100 | > 100 | > 100 | > 100 | > 100 | > 100 | – | – | – | – |
| Cn1nc2ccc(Nc3cc(=O)[nH]c4ccc5nn(C)nc5c34)cc2n1 | > 100 | > 100 | > 100 | > 100 | > 100 | > 100 | > 100 | > 100 | > 100 | > 100 | > 100 | – | – | – | – |
| FC(F)(F)c1cc(N(C2c3ccccc3C=Cc3ccccc32)P(Cl)Cl)cc(C(F)(F)F)c1 | 44.1 | 59 | 38.6 | 45.5 | 37.3 | 58 | 35 | 38.7 | 35.7 | 78.1 | 69.8 | – | – | – | – |
| COc1cc2cc(C(=O)N3CC(COS(C)(=O)=O)c4ccc(NC(=O)OCc5ccccc5)cc43)[nH]c2c(OC)c1OC (centres undefined) | > 100 | > 100 | > 100 | > 100 | > 100 | > 100 | > 100 | > 100 | > 100 | > 100 | > 100 | – | – | – | – |
| Cc1cc(C)c2c(c1)CC1(Cc3cc(C)c(C)cc3C1=O)C2=O (centres undefined) | > 100 | > 100 | > 100 | > 100 | – | > 100 | > 100 | > 100 | > 100 | > 100 | – | – | – | – | – |
| C[C@@H]1[C@@H](C)C(c2ccccc2)O[Si]1(C(C)(C)C)C(C)(C)C (some centres undefined) | 30.3 | 33 | 33.4 | > 55.3 | 31.4 | 42.2 | 31.3 | 40.9 | 33.8 | 33.1 | > 69.3 | – | – | – | – |
| C1=C(c2ccccc2)C(N2CCOCC2)Oc2ccccc21 (centres undefined) | > 100 | > 100 | > 100 | > 100 | > 100 | > 100 | > 100 | > 100 | > 100 | > 100 | > 100 | – | – | – | – |
| N#CC(CCN1CCC(Nc2ccccc2)(c2nnnn2C2CCCCC2)CC1)(c1ccccc1)c1ccccc1 | > 100 | – | > 100 | > 100 | > 100 | > 100 | > 100 | > 100 | > 100 | > 100 | > 100 | – | – | – | – |
| O=C(O)CCC(=O)OCN1C(=O)C2C3C=CC(C2C1=O)C1C2C(=O)N(COC(=O)CCC(=O)O)C(=O)C2C31 (centres undefined) | > 100 | > 100 | > 100 | > 57 | > 100 | > 100 | – | > 100 | > 100 | – | > 100 | – | – | – | – |
| O=P1(N2CCOCC2)OCCO1 | > 100 | > 100 | > 100 | > 100 | – | > 100 | – | – | – | > 100 | – | – | – | – | – |
| CC1=NN(c2cccc(Cl)c2)C2(C1=Cc1ccc(O)cc1)C(Cl)C(=O)N2c1nc2ccccc2s1 (centres undefined) | – | 85.6 | > 100 | 32.1 | 51.8 | 58.7 | 76.1 | > 100 | 87.8 | 51.9 | 57.4 | – | – | – | – |
| O=c1c2cc(C(F)(F)F)ccc2sc2c(NCCCNCCO)nc3ccccc3c12 | – | 2.81 | – | 2.77 | – | – | 2.63 | – | – | 3.24 | – | 1.48 | 1.32 | 1.28 | 1.69 |
| O=C(CCN1CCOCC1)/C(=C/c1ccccc1)c1ccccc1 | 36.6 | 16.9 | 23.9 | 5.98 | 45.8 | – | – | 21.3 | 4.1 | – | 43.3 | – | – | – | – |
| CCOC(=O)c1ccc(Nc2nc3ccccc3nc2-c2cccs2)cc1 | > 100 | > 100 | > 100 | > 100 | > 100 | – | > 100 | > 100 | > 100 | > 100 | – | – | – | – | – |
| CC1CC[C@@]2(OC1)O[C@H]1[C@H](O)[C@H]3[C@@H]4CC[C@H]5C[C@@H](OC6OC(CO)C(OC7OC(CO)C(O)C(OC8OCC(O)C(O)C8O)C7OC7OC(CO)C(O)C(O)C7OC7OC(CO)C(O)C(O)C7O)C(O)C6O)[C@H](O)C[C@]5(C)[C@H]4CC[C@]3(C)[C@H]1[C@@H]2C (some centres undefined) | > 10 | > 10 | > 10 | > 10 | > 10 | > 10 | 5.85 | > 10 | > 10 | 7.84 | – | – | – | – | – |
